{
  "source": "PubChem BioAssay (NCI)",
  "test_in_all_cases": "NCI-60 cell line screen, 48 h",
  "key": {"[1]": {"test_system": "CCRF-CEM leukemia"}, "[2]": {"test_system": "HOP-62 NSCLC"}, "[3]": {"test_system": "SR leukemia"}, "[4]": {"test_system": "EKVX NSCLC"}, "[5]": {"test_system": "UO-31 renal"}, "[6]": {"test_system": "HCT-15 colon"}, "[7]": {"test_system": "ACHN renal"}, "[8]": {"test_system": "786-0 renal"}, "[9]": {"test_system": "SNB-75 CNS"}, "[10]": {"test_system": "LOX IMVI melanoma"}, "[11]": {"test_system": "M14 melanoma"}, "[12]": {"test_system": "OVCAR-4 ovarian"}, "[13]": {"test_system": "SK-MEL-2 melanoma"}, "[14]": {"test_system": "NCI-H23 lung"}, "[15]": {"test_system": "MCF7 breast"}, "[16]": {"test_system": "RXF 393 renal"}, "[17]": {"test_system": "SF-295 CNS"}, "[18]": {"test_system": "COLO 205 colon"}, "[19]": {"test_system": "HL-60(TB) leukemia"}, "[20]": {"test_system": "SF-539 CNS"}, "[21]": {"test_system": "MDA-N"}, "[22]": {"test_system": "KM12 colon"}, "[23]": {"test_system": "SK-MEL-28 melanoma"}, "[24]": {"test_system": "SK-OV-3 ovarian"}, "[25]": {"test_system": "HCT-116 colon"}, "[26]": {"test_system": "HOP-92 NSCLC"}, "[27]": {"test_system": "HCC-2998 colon"}, "[28]": {"test_system": "RPMI-8226 leukemia"}, "[29]": {"test_system": "OVCAR-8 ovarian"}},
  "note": "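Briefly, cells in 96-well plates were exposed to five compound concentrations for 48 h, and endpoints were estimated by linear interpolation. GI50 is the concentration that inhibits growth by half. Definition used: TGI = concentration required for complete inhibition of growth.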",
  "data": [
    {"smiles": "C[C@@H]1CCC2[C@@H](C)[C@@H](OC3CCC(O)CC3)OC3O[C@@]4(C)CCC1[C@]32OO4", "note": "(stereo partly drawn)", "values": [
      {"measurement": "GI50", "setting": "[1]", "result": 37.8, "unit": "µM"},
      {"measurement": "TGI", "setting": "[1]", "result": "> 100", "unit": "µM"},
      {"measurement": "GI50", "setting": "[2]", "result": "> 100", "unit": "µM"},
      {"measurement": "TGI", "setting": "[2]", "result": "> 100", "unit": "µM"},
      {"measurement": "GI50", "setting": "[3]", "result": 7.84, "unit": "µM"},
      {"measurement": "TGI", "setting": "[3]", "result": "> 100", "unit": "µM"},
      {"measurement": "GI50", "setting": "[4]", "result": 32.5, "unit": "µM"},
      {"measurement": "TGI", "setting": "[4]", "result": "> 100", "unit": "µM"},
      {"measurement": "GI50", "setting": "[5]", "result": 6.3, "unit": "µM"},
      {"measurement": "TGI", "setting": "[5]", "result": "> 100", "unit": "µM"},
      {"measurement": "GI50", "setting": "[6]", "result": 3.61, "unit": "µM"},
      {"measurement": "TGI", "setting": "[6]", "result": "> 100", "unit": "µM"},
      {"measurement": "GI50", "setting": "[7]", "result": 67.2, "unit": "µM"},
      {"measurement": "TGI", "setting": "[7]", "result": "> 100", "unit": "µM"},
      {"measurement": "GI50", "setting": "[8]", "result": "> 100", "unit": "µM"},
      {"measurement": "TGI", "setting": "[8]", "result": "> 100", "unit": "µM"},
      {"measurement": "GI50", "setting": "[9]", "result": "> 100", "unit": "µM"},
      {"measurement": "TGI", "setting": "[9]", "result": "> 100", "unit": "µM"},
      {"measurement": "GI50", "setting": "[10]", "result": 24.5, "unit": "µM"},
      {"measurement": "TGI", "setting": "[10]", "result": "> 100", "unit": "µM"},
      {"measurement": "GI50", "setting": "[11]", "result": "> 100", "unit": "µM"},
      {"measurement": "TGI", "setting": "[11]", "result": "> 100", "unit": "µM"},
      {"measurement": "GI50", "setting": "[12]", "result": 46.4, "unit": "µM"},
      {"measurement": "TGI", "setting": "[12]", "result": "> 100", "unit": "µM"},
      {"measurement": "GI50", "setting": "[13]", "result": 92.6, "unit": "µM"},
      {"measurement": "TGI", "setting": "[13]", "result": "> 100", "unit": "µM"},
      {"measurement": "GI50", "setting": "[14]", "result": 96.7, "unit": "µM"},
      {"measurement": "TGI", "setting": "[14]", "result": "> 100", "unit": "µM"},
      {"measurement": "GI50", "setting": "[15]", "result": 38.5, "unit": "µM"},
      {"measurement": "TGI", "setting": "[15]", "result": "> 100", "unit": "µM"},
      {"measurement": "GI50", "setting": "[16]", "result": "> 100", "unit": "µM"},
      {"measurement": "TGI", "setting": "[16]", "result": "> 100", "unit": "µM"},
      {"measurement": "GI50", "setting": "[17]", "result": 45.8, "unit": "µM"},
      {"measurement": "TGI", "setting": "[17]", "result": "> 100", "unit": "µM"},
      {"measurement": "GI50", "setting": "[18]", "result": 8.83, "unit": "µM"},
      {"measurement": "TGI", "setting": "[18]", "result": 32.7, "unit": "µM"},
      {"measurement": "GI50", "setting": "[19]", "result": 4.35, "unit": "µM"},
      {"measurement": "TGI", "setting": "[19]", "result": "> 100", "unit": "µM"},
      {"measurement": "GI50", "setting": "[20]", "result": "> 100", "unit": "µM"},
      {"measurement": "TGI", "setting": "[20]", "result": "> 100", "unit": "µM"},
      {"measurement": "GI50", "setting": "[21]", "result": "> 100", "unit": "µM"},
      {"measurement": "TGI", "setting": "[21]", "result": "> 100", "unit": "µM"},
      {"measurement": "GI50", "setting": "[22]", "result": 51.6, "unit": "µM"},
      {"measurement": "TGI", "setting": "[22]", "result": "> 100", "unit": "µM"},
      {"measurement": "GI50", "setting": "[23]", "result": "> 100", "unit": "µM"},
      {"measurement": "TGI", "setting": "[23]", "result": "> 100", "unit": "µM"},
      {"measurement": "GI50", "setting": "[24]", "result": "> 100", "unit": "µM"},
      {"measurement": "TGI", "setting": "[24]", "result": "> 100", "unit": "µM"},
      {"measurement": "GI50", "setting": "[25]", "result": 71.2, "unit": "µM"},
      {"measurement": "TGI", "setting": "[25]", "result": "> 100", "unit": "µM"},
      {"measurement": "GI50", "setting": "[26]", "result": 23.1, "unit": "µM"},
      {"measurement": "TGI", "setting": "[26]", "result": "> 100", "unit": "µM"},
      {"measurement": "GI50", "setting": "[27]", "result": "> 100", "unit": "µM"},
      {"measurement": "TGI", "setting": "[27]", "result": "> 100", "unit": "µM"},
      {"measurement": "GI50", "setting": "[28]", "result": 7.04, "unit": "µM"},
      {"measurement": "TGI", "setting": "[28]", "result": "> 100", "unit": "µM"},
      {"measurement": "GI50", "setting": "[29]", "result": 16.1, "unit": "µM"},
      {"measurement": "TGI", "setting": "[29]", "result": "> 100", "unit": "µM"}
    ]}
  ]
}
